Results from publication PMC9202104 (BMC Biology, 2022).
Read-outs that look alike come from different tables or passages of the source.

What was measured:
ZIKV infection = conditions: read-out: IC50 against ZIKV infection (reported); cited from earlier work
[1] = tested on: ZIKV human strain PRVABC59; assay: Plaque assay, inhibition of ZIKV infection (strain PRVABC59); type: cell-based; conditions: Zika virus, Vero C1008; plaque assay, Vero E6 cells, human strain; read-out: IC50 PRVABC59
Procedure: (§1) After removal of the unbound compounds by centrifugation (after addition of 3% PEG-6000), ZIKV was incubated with Vero E6 cells in 24-well plates at 37°C for 1 h. The cells were then washed with PBS, overlaid with DMEM containing 1% carboxymethyl cellulose and 2% FBS, and cultured at 37°C for 4–5 days, followed by being stained with 0.5% crystal violet. […] Plaques in each well were calculated, and IC50 of compounds for each compound was calculated using the CalcuSyn computer program.

[2] = tested on: ZIKV human strain PAN2015; assay: Plaque assay, inhibition of ZIKV infection (strain PAN2015); type: cell-based; conditions: Zika virus, Vero C1008, Vero E6 cells
Procedure: as §1

[3] = tested on: ZIKV human strain R103451; assay: Plaque assay, inhibition of ZIKV infection (strain R103451); type: cell-based; conditions: Zika virus, Vero C1008; plaque assay, Vero E6 cells, human strain; read-out: IC50 R103451
Procedure: as §1

ZIKV human strain FLR = assay: Plaque assay, inhibition of ZIKV infection (strain FLR); type: cell-based; conditions: Zika virus, Vero C1008; plaque assay, Vero E6 cells, human strain; read-out: IC50 FLR
Procedure: as §1

[4] = tested on: ZIKV human strain R116265; assay: Plaque assay, inhibition of ZIKV infection (strain R116265); type: cell-based; conditions: Zika virus, Vero C1008, Vero E6 cells
Procedure: as §1

[5] = tested on: ZIKV rhesus macaque strain MR 766; assay: Plaque assay, inhibition of ZIKV infection (strain MR 766); type: cell-based; conditions: Zika virus, Vero C1008; plaque assay, Vero E6 cells, rhesus strain; read-out: IC50 MR 766
Procedure: as §1

[6] = tested on: ZIKV human strain PAN2016 (2016/Panama); assay: Plaque assay, inhibition of ZIKV infection (strain PAN2016); conditions: for SI (CC50/IC50): CC50 Vero E6 / IC50 ZIKV PAN2016
Procedure: as §1

[7] = tested on: ZIKV human strain IbH 30656; assay: Plaque assay, inhibition of ZIKV infection (strain IbH 30656); type: cell-based; conditions: Zika virus, Vero C1008; plaque assay, Vero E6 cells, human strain; read-out: IC50 IbH 30656
Procedure: as §1

[8] = tested on: ZIKV mosquito strain MEX 2-81; assay: Plaque assay, inhibition of ZIKV infection (strain MEX 2-81); type: cell-based; conditions: Zika virus, Vero C1008; plaque assay, Vero E6 cells, mosquito strain; read-out: IC50 MEX 2-81
Procedure: as §1

[9] = Cytotoxicity, Cell Counting Kit-8, Vero E6 cells; type: cell-based; conditions: African green monkey, CC50 Vero E6
Procedure: (§2) Briefly, compounds at 2-fold serial dilutions were added to the respective cells (2.0×10^4/well) pre-seeded in 96-well plates. The cells were cultured at 37°C in the presence of 5% CO2 for 3 days, […] incubated with CCK8 solution, followed by measurement of absorbance at 450 nm (A450 value), using a microplate reader (Infinite F200PRO, Tecan, Morrisville, NC, USA). CC50 of compounds was calculated using the CalcuSyn program.

Vero E6 cells = assay: Cytotoxicity, Cell Counting Kit-8, Vero E6 cells; type: cell-based; conditions: African green monkey, 3 days
Procedure: as §2

[10] = tested on: ZIKV human strain PLCal_ZV; assay: Plaque assay, inhibition of ZIKV infection (strain PLCal_ZV); type: cell-based; conditions: Zika virus, Vero C1008; plaque assay, Vero E6 cells, human strain; read-out: IC50 PLCal_ZV
Procedure: as §1

[11] = tested on: 8 human ZIKV strains (PAN2016, R116265, PAN2015, FLR, R103451, PRVABC59, PLCal_ZV, IbH 30656); assay: microbe, parasite or virus in culture; type: cell-based; conditions: Zika virus, read-out: Average IC50 (human strains)
Procedure: as §1

[12] = Zika virus, Vero C1008, in Homo sapiens, read-out: IC50 against infection of ZIKV PAN2016, plaque assay, Vero E6 cells

Oc1cccc(-c2c3nc(c(-c4cccc(O)c4)c4ccc([nH]4)c(-c4cccc(O)c4)c4nc(c(-c5cccc(O)c5)c5ccc2[nH]5)CC4)C=C3)c1 [Temoporfin]
IC50 (ZIKV infection): 1.1 µM

CC(C)OC(=O)[C@H](C)N[P@](=O)(OC[C@H]1O[C@@H](n2ccc(=O)[nH]c2=O)[C@](C)(F)[C@@H]1O)Oc1ccccc1 [Sofosbuvir]
IC50 (ZIKV infection): 9.6 µM

Cc1cc2c(C(C)C)c(O)c(O)c(/C=N/NC(=O)C(C)C)c2c(O)c1-c1c(C)cc2c(C(C)C)c(O)c(O)c(/C=N/NC(=O)C(C)C)c2c1O [ST086273]
IC50 [1]: 4 µM | IC50 [2]: 5 µM | IC50 [3]: 7 µM | IC50 (ZIKV human strain FLR): 4.2 µM | IC50 [4]: 7.9 µM | IC50 [5]: 5.5 µM | SI (CC50/IC50) [6]: 10.23 | IC50 [6, 12]: 4.8 µM | IC50 ([6]; read-out: IC50 against infection of ZIKV PAN2016, plaque assay, Vero E6 cells): 4.93 ± 0.7 µM | IC50 [7]: 5.4 µM | IC50 [8]: 2.8 µM | CC50 at 3 days [9]: 50.5 µM | CC50 (Vero E6 cells): 50.5 ± 3.36 µM | IC50 [10]: 5.9 µM | IC50 [11]: 5.5 µM

Cc1cc2c(c(O)c1-c1c(C)cc3c(c1O)/C(=C/NCc1cccnc1)C(=O)C(O)=C3C(C)C)/C(=C/NCc1cccnc1)C(=O)C(O)=C2C(C)C [ST005135]
SI (CC50/IC50) [6]: 2.97 | IC50 [6, 12]: 35 ± 2.86 µM | CC50 at 3 days [9]: 104 ± 2.2 µM

Cc1cc2c(c(O)c1-c1c(C)cc3c(c1O)/C(=C/NCCO)C(=O)C(O)=C3C(C)C)/C(=C/NCCO)C(=O)C(O)=C2C(C)C [ST004331]
SI (CC50/IC50) [6]: 1.20 | IC50 [6, 12]: 35.02 ± 0.35 µM | CC50 at 3 days [9]: 42.3 ± 1.17 µM
